pIC50: −log10 of the molar value. Values belong to the molecule of their own block, whether it stands above or below them.
Tests used:
Beta-secretase 1 [1] = molecular target: T1, Beta-secretase 1 (Homo sapiens, UniProt P56817); experiment: Inhibition of BACE1 at 0.2 uM
Beta-secretase 1 [2] = molecular target: T1, Beta-secretase 1; experiment: Inhibition of BACE1
Beta-secretase 1 [3] = molecular target: T1, Beta-secretase 1; experiment: Inhibition of BACE1 at 2 uM

T1 sequence (P56817 whole entry): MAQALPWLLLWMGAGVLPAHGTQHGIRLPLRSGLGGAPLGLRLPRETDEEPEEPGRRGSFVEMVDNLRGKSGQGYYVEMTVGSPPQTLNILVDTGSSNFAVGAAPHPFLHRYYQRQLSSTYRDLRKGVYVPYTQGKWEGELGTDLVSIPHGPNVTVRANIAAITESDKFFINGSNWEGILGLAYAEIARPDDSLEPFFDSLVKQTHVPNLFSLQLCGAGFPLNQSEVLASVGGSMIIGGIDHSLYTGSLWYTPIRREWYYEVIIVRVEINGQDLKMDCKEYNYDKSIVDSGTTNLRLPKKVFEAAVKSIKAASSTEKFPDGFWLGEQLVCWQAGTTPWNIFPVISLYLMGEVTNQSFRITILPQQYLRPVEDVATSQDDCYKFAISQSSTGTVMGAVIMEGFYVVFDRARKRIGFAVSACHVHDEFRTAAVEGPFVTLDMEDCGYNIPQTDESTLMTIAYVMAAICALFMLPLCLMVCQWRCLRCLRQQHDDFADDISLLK

SMILES: CC(C)C[C@H](NC(=O)[C@@H](NC(=O)[C@@H](N)CCC(=O)O)C(C)C)C(=O)N[C@@H](Cc1ccccc1)[C@@H](O)C(=O)Nc1cccc(C(N)=O)c1
- inhibition (Beta-secretase 1 [3]): 62.1%

SMILES: CC(C)C[C@H](NC(=O)[C@@H](NC(=O)[C@@H](N)CCC(=O)O)C(C)C)C(=O)N[C@@H](Cc1ccccc1)[C@@H](O)C(=O)Nc1cccc(-c2nsc(=O)[nH]2)c1
- inhibition (Beta-secretase 1 [1]): 63.2%
- inhibition (Beta-secretase 1 [3]): 91.9%

SMILES: CC(C)C[C@H](NC(=O)[C@@H](NC(=O)[C@@H](N)CCC(=O)O)C(C)C)C(=O)N[C@@H](Cc1ccccc1)[C@@H](O)C(=O)Nc1cccc(-c2n[nH]c(=S)o2)c1
- inhibition (Beta-secretase 1 [1]): 72.3%
- inhibition (Beta-secretase 1 [3]): 92%

SMILES: CC(C)C[C@H](NC(=O)[C@@H](NC(=O)[C@@H](N)CCC(=O)O)C(C)C)C(=O)N[C@@H](Cc1ccccc1)[C@@H](O)C(=O)Nc1cccc(-c2n[nH]c(=S)n2C)c1
- inhibition (Beta-secretase 1 [3]): 74.2%

SMILES: CC(C)C[C@H](NC(=O)[C@@H](NC(=O)[C@@H](N)CCC(=O)O)C(C)C)C(=O)N[C@@H](Cc1ccccc1)[C@@H](O)C(=O)Nc1cc(-c2nn[nH]n2)cc(-c2nn[nH]n2)c1
- inhibition (Beta-secretase 1 [1]): 94%
- pIC50 (Beta-secretase 1 [2]): 8.19
- inhibition (Beta-secretase 1 [3]): 99.7%

SMILES: CC(C)C[C@H](NC(=O)[C@@H](NC(=O)[C@@H](N)CNC(=O)c1nn[nH]n1)C(C)C)C(=O)N[C@@H](Cc1ccccc1)[C@@H](O)C(=O)Nc1cc(-c2nn[nH]n2)cc(-c2nn[nH]n2)c1
- inhibition (Beta-secretase 1 [1]): 100%
- inhibition (Beta-secretase 1 [3]): 100%

SMILES: CC(C)C[C@H](NC(=O)[C@@H](NC(=O)[C@@H](N)CCC(=O)O)C(C)C)C(=O)N[C@@H](Cc1ccccc1)[C@@H](O)C(=O)Nc1cc(C(=O)O)cc(C(=O)O)c1
- inhibition (Beta-secretase 1 [1]): 84.3%
- inhibition (Beta-secretase 1 [3]): 98.3%

SMILES: CC(C)C[C@H](NC(=O)[C@@H](NC(=O)[C@@H](N)CNC(=O)c1nnn[nH]1)C(C)C)C(=O)N[C@@H](Cc1ccccc1)[C@@H](O)C(=O)Nc1cccc(-c2nnn[nH]2)c1
- pIC50 (Beta-secretase 1 [2]): 8.32

SMILES: CC(C)C[C@H](NC(=O)[C@@H](NC(=O)[C@@H](N)CCC(=O)O)C(C)C)C(=O)N[C@@H](Cc1ccccc1)[C@@H](O)C(=O)Nc1cccc(C(=O)O)c1
- inhibition (Beta-secretase 1 [1]): 44.4%

SMILES: CC(C)C[C@H](NC(=O)[C@@H](NC(=O)[C@@H](N)CCC(=O)O)C(C)C)C(=O)N[C@@H](Cc1ccccc1)[C@@H](O)C(=O)Nc1cccc(C(=N)N)c1
- inhibition (Beta-secretase 1 [3]): 29.2%

SMILES: CC(C)C[C@H](NC(=O)[C@@H](NC(=O)[C@@H](N)CNC(=O)c1nnn[nH]1)C(C)C)C(=O)N[C@@H](Cc1ccccc1)[C@@H](O)C(=O)Nc1cc(-c2nnn[nH]2)cc(-c2nnn[nH]2)c1
- pIC50 (Beta-secretase 1 [2]): 8.92

Now from value to molecule:

- inhibition (Beta-secretase 1 [1]): 94.2%
- pIC50 (Beta-secretase 1 [2]): 8.18
- inhibition (Beta-secretase 1 [3]): 100%
SMILES: CC(C)C[C@H](NC(=O)[C@@H](NC(=O)[C@@H](N)CNC(=O)c1nn[nH]n1)C(C)C)C(=O)N[C@@H](Cc1ccccc1)[C@@H](O)C(=O)Nc1cccc(-c2noc(O)n2)c1

- inhibition (Beta-secretase 1 [1]): 97.2%
- inhibition (Beta-secretase 1 [3]): 99.8%
SMILES: CC(C)C[C@H](NC(=O)[C@@H](NC(=O)[C@@H](N)CNC(=O)c1nn[nH]n1)C(C)C)C(=O)N[C@@H](Cc1ccccc1)[C@@H](O)C(=O)Nc1cccc(-c2noc(S)n2)c1

- pIC50 (Beta-secretase 1 [2]): 8.19
SMILES: CC(C)C[C@H](NC(=O)[C@@H](NC(=O)[C@@H](N)CNC(=O)c1nnn[nH]1)C(C)C)C(=O)N[C@@H](Cc1ccccc1)[C@@H](O)C(=O)Nc1cccc(-c2nc(=S)o[nH]2)c1

- inhibition (Beta-secretase 1 [1]): 66.3%
- inhibition (Beta-secretase 1 [3]): 94.4%
SMILES: CC(C)C[C@H](NC(=O)[C@@H](NC(=O)[C@@H](N)CCC(=O)O)C(C)C)C(=O)N[C@@H](Cc1ccccc1)[C@@H](O)C(=O)Nc1cccc(-c2noc(=O)[nH]2)c1

- inhibition (Beta-secretase 1 [1]): 73.7%
- inhibition (Beta-secretase 1 [3]): 92.2%
SMILES: CC(C)C[C@H](NC(=O)[C@@H](NC(=O)[C@@H](N)CCC(=O)O)C(C)C)C(=O)N[C@@H](Cc1ccccc1)[C@@H](O)C(=O)Nc1cccc(-c2nn[nH]n2)c1

- inhibition (Beta-secretase 1 [1]): 68.4%
- inhibition (Beta-secretase 1 [3]): 94.5%
SMILES: CC(C)C[C@H](NC(=O)[C@@H](NC(=O)[C@@H](N)CCC(=O)O)C(C)C)C(=O)N[C@@H](Cc1ccccc1)[C@@H](O)C(=O)Nc1cccc(-c2noc(=S)[nH]2)c1

- inhibition (Beta-secretase 1 [1]): 78.1%
- inhibition (Beta-secretase 1 [3]): 97.3%
SMILES: CC(C)C[C@H](NC(=O)[C@@H](NC(=O)[C@@H](N)CNC(=O)c1nn[nH]n1)C(C)C)C(=O)N[C@@H](Cc1ccccc1)[C@@H](O)C(=O)Nc1cccc(C(N)=O)c1

Reference: ChEMBL document CHEMBL1147649, “Design and synthesis of potent beta-secretase (BACE1) inhibitors with P1' carboxylic acid bioisosteres” (Bioorg Med Chem Lett, 2006)
